Data set [1] addresses T1, human mGlu2 receptor (Homo sapiens, UniProt Q14416).
T1 construct: expressed in transfected cells; host or cells: CHO cells
The data set can be described thus: [35S]GTPγS binding assay (mGluR2 negative allosteric modulation, glutamate ~EC80 60 μM). It is filed as biochemical. The settings on record: for Emax: maximal % inhibition relative to the control glutamate response (EC80 glutamate), read-out: GTPγS-hmGluR2 anGT Emax; for IC50: membranes from CHO cells transfected with human mGlu2 receptor, glutamate ~EC80 (60 μM), pIC50 = −log IC50 (M), read-out: GTPγS-hmGluR2 anGT pIC50 (converted). On the procedure:
1) [^35S]GTPγS Binding Assay
[^35S]GTPγS Binding Assay
Total reaction volume was 200 μl. […] Membrane-bound radioactivity was counted in a Topcount.
Background: GTPγS resists hydrolysis and so accumulates on activated G proteins.

T1 sequence (Q14416 19-872): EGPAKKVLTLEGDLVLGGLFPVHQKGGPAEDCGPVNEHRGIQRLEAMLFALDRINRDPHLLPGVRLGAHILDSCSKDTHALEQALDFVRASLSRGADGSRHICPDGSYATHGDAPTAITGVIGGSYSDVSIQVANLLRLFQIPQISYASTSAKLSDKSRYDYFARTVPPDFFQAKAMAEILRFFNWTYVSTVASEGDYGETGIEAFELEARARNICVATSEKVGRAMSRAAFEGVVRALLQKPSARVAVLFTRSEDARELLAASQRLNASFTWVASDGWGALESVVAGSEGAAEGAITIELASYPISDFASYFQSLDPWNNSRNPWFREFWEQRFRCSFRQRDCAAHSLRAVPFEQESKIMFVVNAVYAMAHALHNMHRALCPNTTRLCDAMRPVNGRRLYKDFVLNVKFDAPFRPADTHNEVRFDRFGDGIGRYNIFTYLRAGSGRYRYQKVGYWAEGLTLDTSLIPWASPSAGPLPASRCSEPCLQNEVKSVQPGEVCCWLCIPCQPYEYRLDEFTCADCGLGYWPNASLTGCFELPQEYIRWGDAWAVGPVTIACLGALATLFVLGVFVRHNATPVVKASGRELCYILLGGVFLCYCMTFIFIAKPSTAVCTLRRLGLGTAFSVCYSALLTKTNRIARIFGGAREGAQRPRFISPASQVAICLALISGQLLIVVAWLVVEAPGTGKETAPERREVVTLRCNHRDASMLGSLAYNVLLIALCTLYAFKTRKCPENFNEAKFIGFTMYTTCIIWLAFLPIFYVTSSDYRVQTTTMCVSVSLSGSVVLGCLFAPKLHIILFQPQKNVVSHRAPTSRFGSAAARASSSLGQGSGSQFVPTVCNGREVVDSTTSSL

Broadly, the Emax is the greatest response seen or fitted, relative to the assay's reference. By melting point is commonly meant the temperature of the solid-liquid transition. `Cc1cc(N)ncc1C(=O)Nc1cnn2c1C(=O)N(c1ccc(C(F)(F)F)cc1)C[C@@H]2C` [Co. No. 163, 6-Amino-4-methyl-N-[(7S)-7-methyl-4-oxo-5-[4-(trifluoromethyl)phenyl]-6,7-dihydropyrazolo[1,5-a]pyrazin-3-yl]pyridine-3-carboxamide] came in with a melting point of 226.06 °C. In data set [1], the Emax came to 106% and the IC50 was 2.57e-09 M.
`COc1nc(N2C[C@H](C)n3ncc(NC(=O)c4ccc(N)nc4)c3C2=O)ccc1C(F)(F)F` [Co. No. 33] displayed a melting point of 250.03 °C. In data set [1], the Emax stood at 117% and the IC50 was 7.59e-09 M.
For the molecule `C[C@H]1CN(c2ccc(C(F)(F)F)cc2)C(=O)c2c(NC(=O)c3cnc(N)s3)cnn21` [Co. No. 74, 2-Amino-N-[(7S)-7-methyl-4-oxo-5-[4-(trifluoromethyl)phenyl]-6,7-dihydropyrazolo[1,5-a]pyrazin-3-yl]thiazole-5-carboxamide], the melting point amounted to 283.48 °C. Also, in data set [1], the Emax is 113% and the IC50 was 3.39e-08 M.
Regarding `Cc1cc(C(=O)Nc2cnn3c2C(=O)N(c2ccc(C(F)(F)F)cc2)C[C@@H]3C)no1` [Co. No. 72], the melting point stood at 209.27 °C. In addition, in data set [1], the Emax was determined as 99% and the IC50 is 4.27e-08 M.
The like results for `Cc1cc(C(=O)Nc2cnn3c2C(=O)N(c2ccc(C(F)(F)F)cc2)C[C@@H]3C)cc(N)n1` [Co. No. 162] were, in that order, 196.39 °C, 107% and 2.75e-09 M.
As to `C[C@H]1CN(c2ccc(C(F)(F)F)cc2)C(=O)c2c(NC(=O)C3CCOCC3)cnn21` [Co. No. 186], the melting point was 142.94 °C. Besides, in data set [1], the Emax is 106% and the IC50 is 7.08e-07 M.
`COc1cc(N2C[C@H](C)n3ncc(NC(=O)c4cc(C)nc(C)c4)c3C2=O)ccc1C(F)(F)F` [Co. No. 125] yielded a melting point of 226.99 °C. Further, in data set [1], the Emax was 104% and the IC50 was 4.07e-09 M.
As to `Cc1cc(N2C[C@H](C)n3ncc(NC(=O)c4cccnc4N)c3C2=O)ccc1Cl` [Co. No. 208], the melting point was determined as 174.32 °C.
As to `Cc1cncc(C(=O)Nc2cnn3c2C(=O)N(c2ccc(C(F)(F)F)c(Cl)c2)C[C@@H]3C)c1C` [Co. No. 133], the melting point came out at 172.8 °C. In addition, in data set [1], the Emax was 109% and the IC50 is 3.31e-09 M.
Regarding `Cc1cc(C(=O)Nc2cnn3c2C(=O)N(c2ccc(C(F)(F)F)cc2)C[C@@H]3C)on1` [Co. No. 71], the melting point was determined as 243.14 °C. For the same molecule, in data set [1], the Emax amounted to 97% and the IC50 is 3.8e-08 M.
In the same order, the values of `C[C@H]1CN(c2ccc(C(F)(F)F)cc2)C(=O)c2c(NC(=O)c3ccc(N)cn3)cnn21` [Co. No. 68, 5-Amino-N-[(7S)-7-methyl-4-oxo-5-[4-(trifluoromethyl)phenyl]-6,7-dihydropyrazolo[1,5-a]pyrazin-3-yl]pyridine-2-carboxamide] are 289.4 °C, 107% and 2.82e-08 M.
Turning to `Cc1cccc(C(=O)Nc2cnn3c2C(=O)N(c2ccc(C(F)(F)F)cc2)C[C@@H]3C)c1` [Co. No. 9], the melting point worked out at 147.4 °C. In addition, in data set [1], the Emax worked out at 106% and the IC50 is 2.45e-09 M.
The like results for `COCc1ccccc1C(=O)Nc1cnn2c1C(=O)N(c1ccc(C(F)(F)F)cc1)C[C@@H]2C` [Co. No. 78] were, in that order, 88.18 °C, 105% and 5.62e-08 M.
As to `COc1ccccc1C(=O)Nc1cnn2c1C(=O)N(c1ccc(C(F)(F)F)c(OC)n1)C[C@@H]2C` [Co. No. 75], the melting point was determined as 231.11 °C. Also, in data set [1], the Emax came out at 103% and the IC50 is 5.37e-08 M.
Consider `CC(=O)Nc1cnn2c1C(=O)N(c1ccc(C(F)(F)F)cc1)C[C@@H]2C` [Co. No. 160, N-[(7S)-7-methyl-4-oxo-5-[4-(trifluoromethyl)phenyl]-6,7-dihydropyrazolo[1,5-a]pyrazin-3-yl]acetamide], for which the melting point is 142.82 °C. In data set [1], the Emax worked out at 101% and the IC50 is 6.31e-07 M.
As for `C[C@H]1CN(c2ccc(Cl)c(Cl)c2)C(=O)c2c(NC(=O)C(F)(F)F)cnn21` [Co. No. 173, N-[(7S)-5-(3,4-Dichlorophenyl)-7-methyl-4-oxo-6,7-dihydropyrazolo[1,5-a]pyrazin-3-yl]-2,2,2-trifluoro-acetamide], in data set [1], the maximum response (Emax) amounted to 104% and the IC50 is 2.29e-08 M.
In turn, `COCC1CN(c2ccc(C(F)(F)F)c(Cl)c2)C(=O)c2c(NC(=O)c3ccc(N)nc3)cnn21` (centres unmarked) [Co. No. 141] displayed a melting point of 230.4 °C.
Molecule `C[C@H]1CN(c2ccc(C(F)(F)F)c(CO)c2)C(=O)c2c(NC(=O)c3ccc(N)nc3)cnn21` [Co. No. 165] showed a melting point of 238.83 °C.
In the case of `Cc1cnc(NC(C)(C)C)c(C(=O)Nc2cnn3c2C(=O)N(c2ccc(C(F)(F)F)c(Cl)c2)C[C@@H]3C)c1` [Co. No. 167, 2-(tert-Butylamino)-N-[(7S)-5-[3-chloro-4-(trifluoromethyl)phenyl]-7-methyl-4-oxo-6,7-dihydropyrazolo[1,5-a]pyrazin-3-yl]-5-methyl-pyridine-3-carboxamide], in data set [1], the Emax turned out to be 103% and the IC50 is 2.82e-07 M.
In the same order, the values of `C[C@H]1CN(c2ccc(C(F)(F)F)cc2)C(=O)c2c(NC(=O)c3ccc(N)nn3)cnn21` [Co. No. 90] are 97% and 2.88e-07 M.
The like results for `Cc1cc(C(=O)Nc2cnn3c2C(=O)N(c2ccc(C(F)(F)F)c(Cl)c2)C[C@@H]3C)cnc1N` [Co. No. 169, 6-Amino-N-[(7S)-5-[3-chloro-4-(trifluoromethyl)phenyl]-7-methyl-4-oxo-6,7-dihydropyrazolo[1,5-a]pyrazin-3-yl]-5-methyl-pyridine-3-carboxamide] were, in that order, 108% and 5.89e-10 M.
The like results for `Cc1cncc(C(=O)Nc2cnn3c2C(=O)N(c2ccc(Cl)cc2)C[C@@H]3C)c1` [Co. No. 131] were, in that order, 107% and 1.66e-08 M.
With `C[C@H]1CN(c2ccc(C(F)(F)F)cc2)C(=O)c2c(NC(=O)c3ccccn3)cnn21` [Co. No. 24], in data set [1], the Emax is 102% and the IC50 is 5.89e-09 M.
Regarding `COc1cccc(F)c1C(=O)Nc1cnn2c1C(=O)N(c1ccc(C(F)(F)F)cc1)C[C@@H]2C` [Co. No. 41], in data set [1], the Emax came to 109% and the IC50 was 1.05e-08 M.
Regarding `Cc1nccc(C(=O)Nc2cnn3c2C(=O)N(c2ccc(C(F)(F)F)cc2)C[C@@H]3C)c1C` [Co. No. 154], in data set [1], the Emax was 105% and the IC50 is 6.03e-08 M.
As for `Cc1cc(C(=O)Nc2cnn3c2C(=O)N(c2ccc(C(F)(F)F)c(Cl)c2)C[C@@H]3C)cnc1NC(C)(C)C` [Co. No. 168, 6-(tert-butylamino)-N-[(7S)-5-[3-chloro-4-(trifluoromethyl)phenyl]-7-methyl-4-oxo-6,7-dihydropyrazolo[1,5-a]pyrazin-3-yl]-5-methyl-pyridine-3-carboxamide], in data set [1], the Emax worked out at 105% and the IC50 was 2.88e-08 M.
Turning to `C[C@H]1CN(c2ccc(C(F)(F)F)c(CF)c2)C(=O)c2c(NC(=O)c3ccc(N)nc3)cnn21` [Co. No. 5, 6-Amino-N-[(7S)-5-[3-(fluoromethyl)-4-(trifluoromethyl)phenyl]-7-methyl-4-oxo-6,7-dihydropyrazolo[1,5-a]pyrazin-3-yl]pyridine-3-carboxamide], in data set [1], the Emax was determined as 107% and the IC50 was 2.4e-09 M.
Take `Cc1cc(C(=O)Nc2cnn3c2C(=O)N(c2ccc(Cl)cc2)C[C@@H]3C)cc(C)n1` [Co. No. 132]: in data set [1], the Emax stood at 112% and the IC50 is 8.71e-09 M.
The like results for `C[C@H]1CN(c2ccc(C(F)(F)F)cc2)C(=O)c2c(NC(=O)c3ncccn3)cnn21` [Co. No. 98] were, in that order, 106% and 1.51e-07 M.
Take `C[C@H]1CN(c2ccc(C(F)(F)F)cc2)C(=O)c2c(NC(=O)c3ncccc3F)cnn21` [Co. No. 67]: in data set [1], the Emax was found to be 102% and the IC50 is 2.82e-08 M.
In the same order, the values of `C[C@H]1CN(c2ccc(C(F)(F)F)cc2)C(=O)c2c(NC(=O)c3ccno3)cnn21` [Co. No. 69] are 103% and 2.95e-08 M.
The like results for `Cc1nccc(C(=O)Nc2cnn3c2C(=O)N(c2ccc(C(F)(F)F)c(Cl)c2)C[C@@H]3C)c1C` [Co. No. 155] were, in that order, 104% and 5.5e-09 M.
Turning to `C[C@H]1CN(c2ccc(C(F)(F)F)cc2)C(=O)c2c(NC(=O)c3ccc(O)nn3)cnn21` [Co. No. 92], in data set [1], the Emax was determined as 101% and the IC50 is 1.26e-06 M.
`Cc1cc(C(=O)Nc2cnn3c2C(=O)N(c2ccc(C(F)(F)F)cc2)C[C@@H]3C)cc(CF)n1` (racemic) [Co. No. 209] gave a melting point of 157.37 °C.
Take `Cc1cnc(N)c(C(=O)Nc2cnn3c2C(=O)N(c2ccc(SC(F)(F)F)cc2)C[C@@H]3C)c1` [Co. No. 207]: the melting point came out at 172.9 °C.
Take `COCC1CN(c2ccc(C(F)(F)F)c(Cl)c2)C(=O)c2c(NC(=O)c3ccc(N)nc3)cnn21` (centres unmarked) [Co. No. 140]: the melting point was 230.27 °C.
For `COc1nc(N2C[C@H](C)n3ncc(NC(=O)c4ccc(N)nc4)c3C2=O)ccc1Cl` [Co. No. 65], in data set [1], the maximal effect (Emax) turned out to be 111% and the IC50 was 2.69e-08 M.
For the molecule `Cc1cc(C(=O)Nc2cnn3c2C(=O)N(c2ccc(C(F)(F)F)cc2)C[C@@H]3C)c(C)cn1` [Co. No. 157], in data set [1], the Emax stood at 106% and the IC50 is 1.86e-08 M.
In the same order, the values of `C[C@H]1CN(c2ccc(C(F)(F)F)cc2)C(=O)c2c(NC(=O)c3cc(N)[nH]n3)cnn21` [Co. No. 84, 5-Amino-N-[(7S)-7-methyl-4-oxo-5-[4-(trifluoromethyl)phenyl]-6,7-dihydropyrazolo[1,5-a]pyrazin-3-yl]-1H-pyrazole-3-carboxamide] are 109% and 1.38e-07 M.

Source of the values: patent publication US10519162B2, “6,7-dihydropyrazolo[1,5-α]pyrazin-4(5H)-one compounds and their use as negative allosteric modulators of mGluR2 receptors” (Janssen Pharmaceutica NV, priority 2014, dated 2019).
